{"source": "patent US6380218B1", "about": "“Nicotinamide derivatives” (Pfizer Inc, priority 1997, dated 2002)", "data": [{"units": {"melting point": "°C"}, "values": [{"smiles": "Cc1cnc(CNC(=O)c2cccnc2Oc2ccc(F)cc2)cn1", "note": "[Example 209, 2-(4-Fluoro-phenoxy)-N-(5-methyl-pyrazin-2-ylmethyl)-nicotinamide]", "melting point": 159}, {"smiles": "CC(C)(O)c1ccc(CC(=O)Nc2cccnc2Oc2cccnc2)cc1", "note": "[Example 211, 2-[4-(1-Hydroxy-1-methyl-ethyl)-phenyl]-N-[2-(pyridin-3-yloxy)-pyridin-3-yl]-acetamide]", "melting point": "122 to 124"}, {"smiles": "CC(=O)c1cccc(Oc2ncccc2NC(=O)Cc2ccc(C(C)(C)O)cc2)c1", "note": "[Example 213, N-[2-(3-Acetyl-phenoxy)-pyridin-3-yl]-2-[4-(1-hydroxy-1-methyl-ethyl)-phenyl]-acetamide]", "melting point": "85 to 87"}, {"smiles": "CC(C)(O)C1CCC(CNC(=O)c2cccnc2Oc2cccc(C#N)c2)CC1", "note": "(stereo not shown) [Example 214, 2-(3-Cyano-phenoxy)-N-[4-(1-hydroxy-1-methyl-ethyl)-cyclohexylmethyl]-nicotinamide]", "melting point": "129 to 130"}, {"smiles": "O=C1COC(CNC(=O)c2cccnc2Oc2ccc(F)cc2)CN1", "note": "(stereo not shown) [Example 216, 2-(4-Fluoro-phenoxy)-N-(5-oxo-morpholin-2-ylmethyl)-nicotinamide]", "melting point": "157 to 159"}, {"smiles": "CC(C)(O)c1ccc(CC(=O)Nc2cccnc2Oc2cccc(C#N)c2)cc1", "note": "[Example 218, N-[2-(3-Cyano-phenoxy)-pyridin-3-yl]-2-[4-(1-hydroxy-1methyl-ethyl)-phenyl]-acetamide]", "melting point": "97 to 99"}, {"smiles": "O=C(NCc1ccc(C(=O)C(F)(F)F)cc1)c1cccnc1Oc1cccnc1", "note": "[Example 219, 2-(Pyridin-3-yloxy)-N-(4-trifluoroacetyl-benzyl)-nicotinamide]", "melting point": "134 to 136"}, {"smiles": "CC(=O)c1cccc(Oc2ncccc2C(=O)NCc2ccncc2)c1", "note": "[Example 220, 2-(3-Acetyl-phenoxy)-N-pyridin-4-ylmethyl-nicotinamide]", "melting point": "148 to 150"}, {"smiles": "CC(=O)c1cccc(Oc2ncccc2C(=O)NCc2ccc(C(C)(C)O)cc2)c1", "note": "[Example 221, 2-(3-Acetyl-phenoxy)-N-[4-(1-hydroxy-1-methyl-ethyl)-benzyl]-nicotinamide]", "melting point": "52 to 54"}, {"smiles": "CC(=O)c1cccc(Oc2ncccc2C(=O)NCc2ccccc2Cl)c1", "note": "[Example 222, 2-(3-Acetyl-phenoxy)-N-(2-chloro-benzyl)-nicotinamide]", "melting point": "140 to 142"}, {"smiles": "CC(=O)c1cccc(Oc2ncccc2C(=O)NCc2ccc(C(C)O)cc2)c1", "note": "(stereo not shown) [Example 223, 2-(3-Acetyl-phenoxy)-N-[4-(1-hydroxy-ethyl)-benzyl]-nicotinamide]", "melting point": "105 to 107"}, {"smiles": "CC(=O)c1cccc(Oc2ncccc2C(=O)NCc2ccc(S(N)(=O)=O)cc2)c1", "note": "[Example 224, 2-(3-Acetyl-phenoxy)-N-(4-sulfamoyl-benzyl)-nicotinamide]", "melting point": "162 to 164"}, {"smiles": "CC(=O)C1CCC(CNC(=O)c2cccnc2Oc2ccc(F)cc2)CC1", "note": "(stereo not shown) [Example 229, N-(4-Acetyl-cyclohexylmethyl)-2-(4-fluoro-phenoxy)-nicotinamide]", "melting point": "110 to 111"}, {"smiles": "CC(C)(O)c1ccc(CNC(=O)c2cccnc2Oc2ccc(F)cc2F)cc1", "note": "[Example 230, 2-(2,4-Difluoro-phenoxy)-N-[4-(1-hydroxy-1-methyl-ethyl)-benzyl]-nicotinamide]", "melting point": "92 to 94"}, {"smiles": "CC(C)(O)c1ccc(CNC(=O)c2cccnc2Oc2ccc(F)c(F)c2)cc1", "note": "[Example 231, 2-(3,4-Difluoro-phenoxy)-N-[4-(1-hydroxy-1-methyl-ethyl)-benzyl]-nicotinamide]", "melting point": "98 to 100"}, {"smiles": "O=C(NCc1ccc(C2(O)CCC2)cc1)c1cccnc1Oc1ccc(F)c(F)c1", "note": "[Example 232, 2-(3,4-Difluoro-phenoxy)-N-[4-(1-hydroxy-cyclobutyl)-benzyl]-nicotinamide]", "melting point": "74 to 76"}, {"smiles": "CC(=O)c1cccc(Oc2ncccc2C(=O)NCc2ccc(C(C)(C)O)cc2Cl)c1", "note": "[Example 235, 2-(3-Acetyl-phenoxy)-N-[2-chloro-4-(1-hydroxy-1-methyl-ethyl)-benzyl]-nicotinamide]", "melting point": "102 to 104"}, {"smiles": "CC(=O)c1ccc(Oc2ncccc2C(=O)NCc2ccc(C(C)(C)O)cc2)cc1", "note": "[Example 236, 2-(4-Acetyl-phenoxy)-N-[4-(1-hydroxy-1-methyl-ethyl)-benzyl]-nicotinamide]", "melting point": "95 to 97"}, {"smiles": "CC(=O)c1cccc(Oc2ncccc2C(=O)NCc2ccc(C(C)(C)O)cc2F)c1", "note": "[Example 237, 2-(3-Acetyl-phenoxy)-N-[2-fluoro-4-(1-hydroxy-1-methyl-ethyl)-benzyl]nicotinamide]", "melting point": "68 to 70"}, {"smiles": "CC(C)(O)c1ccc(CNC(=O)c2cccnc2Oc2cc(F)cc(F)c2)cc1", "note": "[Example 238, 2-(3,5-Difluoro-phenoxy)-N-[4-(1-hydroxy-1-methyl-ethyl)-benzyl]-nicotinamide]", "melting point": "68 to 70"}, {"smiles": "CC(C)(O)[C@H]1CC[C@H](CNC(=O)c2cccnc2Oc2ccc(F)cc2F)CC1", "note": "[Example 239, trans-2-(2,4-Difluoro-phenoxy)-N-[4-(1-hydroxy-1-methyl-ethyl)-cyclohexylmethyl]-nicotinamide]", "melting point": "92 to 94"}, {"smiles": "CC(C)(O)[C@H]1CC[C@H](CNC(=O)c2cccnc2Oc2ccc(F)c(F)c2)CC1", "note": "[Example 240, trans-2-(3,4-Difluoro-phenoxy)-N-[4-(1-hydroxy-1-methyl-ethyl)-cyclohexylmethyl]-nicotinamide]", "melting point": "80 to 82"}, {"smiles": "CC(=O)c1cccc(Oc2ncccc2C(=O)NCC2CCC(C(C)(C)O)CC2)c1", "note": "(stereo not shown) [Example 242, 2-(3-Acetyl-phenoxy)-N-[4-(1-hydroxy-1-methyl-ethyl)-cyclohexylmethyl]-nicotinamide]", "melting point": "105 to 107"}, {"smiles": "CC(C)(O)c1ccc(CNC(=O)c2cccnc2Oc2ccc(F)c(C#N)c2)cc1", "note": "[Example 243, 2-(3-Cyano-4-fluoro-phenoxy)-N-[4-(1-hydroxy-1-methyl-ethyl)-benzyl]-nicotinamide]", "melting point": "147 to 149"}, {"smiles": "CC(C)(O)c1ccc(CNC(=O)c2cccnc2Oc2ccc(F)c(C#N)c2)c(Cl)c1", "note": "[Example 244, N-[2-Chloro-4-(1-hydroxy-1-methyl-ethyl)-benzyl]-2-(3-cyano-4-fluoro-phenoxy)-nicotinamide]", "melting point": "151 to 153"}, {"smiles": "CC(C)(O)C1CCC(CNC(=O)c2cccnc2Oc2ccc(F)cc2)CC1", "note": "(stereo not shown) [Example 245, 2-(4-Fluoro-phenoxy)-N-[4-(1-hydroxy-1-methyl-ethyl)-cyclohexylmethyl]-nicotinamide]", "melting point": "78 to 80"}, {"smiles": "O=C(NCc1ccccc1Cl)c1cccnc1OCc1cccnc1", "note": "[Example 246, N-(2-Chloro-benzyl)-2-(pyridin-3-ylmethoxy)-nicotinamide]", "melting point": "91 to 93"}, {"smiles": "CN(C)c1ccc(CNC(=O)c2cccnc2Oc2ccc(F)cc2)cc1", "note": "[Example 247, N-[[4-(Dimethylamino)phenyl]methyl]-2-(4-fluorophenoxy)-3-pyridinecarboxamide]", "melting point": "99.5 to 101.5"}, {"smiles": "COc1ccc(CCC(=O)c2cccnc2Oc2ccc(F)cc2)cc1", "note": "[Example 249, 1-[2-(4-Fluorophenoxy)-3-pyridinyl]-3-(4-methoxyphenyl)-1-propanone]", "melting point": "73 to 74"}, {"smiles": "O=C(CCc1ccc(C(F)(F)F)cc1)c1cccnc1Oc1ccc(F)cc1", "note": "[Example 252, 1-[2-(4-Fluoro-phenoxy)-pyridin-3-yl]-3-(4-trifluoromethyl-phenyl)-propan-1-one]", "melting point": "94 to 95"}, {"smiles": "O=C(CCc1ccc(OC(F)(F)F)cc1)c1cccnc1Oc1ccc(F)cc1", "note": "[Example 253, 1-[2-(4-Fluoro-phenoxy)-pyridin-3-yl]-3-(4-trifluoromethoxy-phenyl)-propan-1-one]", "melting point": "79 to 81"}, {"smiles": "O=C(CCc1cc(F)cc(F)c1)c1cccnc1Oc1ccc(F)cc1", "note": "[Example 254, 3-(3,5-Difluoro-phenyl)-1-[2-(4-fluoro-phenoxy)-pyridin-3-yl]-propan-1-one]", "melting point": "69 to 70"}, {"smiles": "O=C(CCc1c(F)cc(F)cc1F)c1cccnc1Oc1ccc(F)cc1", "note": "[Example 255, 1-[2-(4-Fluoro-phenoxy)-pyridin-3-yl]-3-(2,4,6-trifluoro-phenyl)-propan-1-one]", "melting point": "84 to 85"}, {"smiles": "O=C(CCc1ccccc1)c1cccnc1Oc1ccc(F)cc1", "note": "[Example 256, 1-[2-(4-Fluorophenoxy)-3-pyridinyl]-3-phenyl-1-propanone]", "melting point": "82 to 83"}, {"smiles": "O=C(CCc1ccccc1)c1cccnc1Oc1cccnc1", "note": "[Example 257, 3-Phenyl-1-[2-(pyridin-3-yloxy)-pyridin-3-yl]-propan-1-one]", "melting point": "45 to 46"}, {"smiles": "O=C(CCc1ccc(F)cc1)c1cccnc1Oc1cccnc1", "note": "[Example 258, 3-(4-Fluoro-phenyl)-1-[2-(pyridin-3-yloxy)-pyridin-3-yl]-propan-1-one]", "melting point": "62 to 64"}, {"smiles": "O=C(Cc1ccccc1)c1cccnc1Oc1ccc(F)cc1", "note": "[Example 264, 1-[2-(4-Fluoro-phenoxy)-pyridin-3-yl]-2-phenyl-ethanone]", "melting point": "81 to 82"}, {"smiles": "O=C(COc1ccccc1)c1cccnc1Oc1ccc(F)cc1", "note": "[Example 265, 1-[2-(4-Fluoro-phenoxy)-pyridin-3-yl]-2-phenoxy-ethanone]", "melting point": "105.5 to 106.5"}, {"smiles": "O=C(COc1ccccc1Cl)c1cccnc1Oc1ccc(F)cc1", "note": "[Example 266, 2-(2-Chloro-phenoxy)-1-[2-(4-fluoro-phenoxy)-pyridin-3-yl]-ethanone]", "melting point": "92 to 93"}, {"smiles": "O=C(c1cc2ccccc2[nH]1)c1cccnc1Oc1ccc(F)cc1", "note": "[Example 269, [2-(4-Fluoro-phenoxy)-pyridin-3-yl]-(1H-indol-2-yl)-methanone]", "melting point": "169 to 170"}, {"smiles": "CN(CC(=O)c1cccnc1Oc1ccc(F)cc1)c1ccccc1", "note": "[Example 270, 1-[2-(4-Fluoro-phenoxy)-pyridin-3-yl]-2-(methyl-phenyl-amino)-ethanone]", "melting point": "126 to 128"}, {"smiles": "OC(CCc1c(F)cc(F)cc1F)c1cccnc1Oc1ccc(F)cc1", "note": "(stereo not shown) [Example 274, 1-[2-(4-Fluoro-phenoxy)-pyridin-3-yl]-3-(2,4,6-trifluoro-phenyl)-propan-1-ol]", "melting point": "90 to 91"}, {"smiles": "COc1cccc(Oc2ncccc2C(=O)NCc2ccccc2Cl)c1", "note": "[Example 283, N-(2-Chloro-benzyl)-2-(3-methoxy-phenoxy)-nicotinamide]", "melting point": "71 to 74"}]}]}
